pIC50: −log10 of the molar value.
These molecules were tested on HCV genotype 1b replicon (assay: HCV replicon assay, cell ELISA with antibody to replicon-encoded NS3/4A (genotype 1b replicon)). Conditions: HCV genotype 1b replicon; 96 hours incubation; NS3/4A cell ELISA; read-out: 1b IC50.
Type: cell-based, hepatitis C virus
Summary of the method: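 An ELISA on lysed cells, using an antibody against NS3/4A protease, served as the proxy for replicon RNA. Cells had first been exposed for 96 h to serially diluted compound in G418-free conditions. Percent of DMSO control was fitted with a four-parameter function to give IC50.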

Compound | pIC50
CCOP(=O)(O)CCCN(c1cc2oc(-c3ccc(F)cc3)c(C(=O)NC)c2cc1-c1ccc(OC)c(-c2nc3c(F)cccc3o2)c1)S(C)(=O)=O [Example 844] | 8.41

Same assay, conditions: Hepatitis C virus, 96 h, read-out: 1b IC50(nM), HCV genotype 1b replicon; 96 hours incubation; NS3/4A cell ELISA

Compound | IC50
CNC(=O)c1c(-c2ccc(F)cc2)oc2cc(N(CC3(C#N)CC3)S(C)(=O)=O)c(-c3ccc(OC)c(-c4nc5c(F)cc(F)cc5o4)c3)cc12 [Example 738] | 7.62 nM
CNC(=O)c1c(-c2ccc(F)cc2)oc2cc(N(C3CC(C#N)C3)S(C)(=O)=O)c(-c3cccc(-c4nc5ncccc5o4)c3)cc12 (centres unmarked) [Example 739] | 2.17 nM
CNC(=O)c1c(-c2ccc(F)cc2)oc2cc(N(C3CC(C#N)C3)S(C)(=O)=O)c(-c3ccc(OC)c(-c4nc5c(F)cccc5o4)c3)cc12 (centres unmarked) [Example 740] | 4.76 nM
CNC(=O)c1c(-c2ccc(F)cc2)oc2cc(N(C3CC(C#N)C3)S(C)(=O)=O)c(-c3ccc(OC)c(-c4nc5c(C#N)cccc5o4)c3)cc12 (centres unmarked) [Example 741] | 5.85 nM
CNC(=O)c1c(-c2ccc(F)cc2)oc2cc(N(C3CC(C#N)C3)S(C)(=O)=O)c(-c3ccc(OC)c(-c4nc5c(F)cc(F)cc5o4)c3)cc12 (centres unmarked) [Example 742] | 4.57 nM
CNC(=O)c1c(-c2ccc(F)cc2)oc2cc(N(CC3CCOC(c4ccccc4)O3)S(C)(=O)=O)c(-c3ccc(OC)c(-c4nc5c(F)cccc5o4)c3)cc12 (centres unmarked) [Example 769] | 80.7 nM
CNC(=O)c1c(-c2ccc(F)cc2)oc2cc(N(CCC3COC(C)(C)O3)S(C)(=O)=O)c(-c3ccc(OC)c(-c4nc5c(F)cccc5o4)c3)cc12 (centres unmarked) [Example 770] | 11.3 nM
CNC(=O)c1c(-c2ccc(F)cc2)oc2cc(N(CCC3COC(C)(C)O3)S(C)(=O)=O)c(-c3ccc(OC)c(-c4nc5c(F)cc(F)cc5o4)c3)cc12 (centres unmarked) [Example 771] | 13.3 nM
CNC(=O)c1c(-c2ccc(F)cc2)oc2cc(N(CC(C)(C)O)S(C)(=O)=O)c(-c3ccc(OC)c(-c4nc5cccc(F)c5o4)c3)cc12 [Example 778] | 24.8 nM
CNC(=O)c1c(-c2ccc(F)cc2)oc2cc(N(CC(C)(C)O)S(C)(=O)=O)c(-c3ccc(OC)c(-c4nc5c(F)cccc5o4)c3)cc12 [Example 779] | 8.28 nM
CNC(=O)c1c(-c2ccc(F)cc2)oc2cc(N(CC(C)(C)O)S(C)(=O)=O)c(-c3ccc(OC)c(-c4nc5cc(F)cc(F)c5o4)c3)cc12 [Example 780] | 18.5 nM
CNC(=O)c1c(-c2ccc(F)cc2)oc2cc(N(C(CO)CO)S(C)(=O)=O)c(-c3ccc(OC)c(-c4nc5c(F)cccc5o4)c3)cc12 [Example 782] | 5.41 nM
CNC(=O)c1c(-c2ccc(F)cc2)oc2cc(N(CCC(O)CO)S(C)(=O)=O)c(-c3ccc(OC)c(-c4nc5c(F)cccc5o4)c3)cc12 (centres unmarked) [Example 784] | 3.61 nM
CNC(=O)c1c(-c2ccc(F)cc2)oc2cc(N(CCC(O)CO)S(C)(=O)=O)c(-c3ccc(OC)c(-c4nc5c(F)cc(F)cc5o4)c3)cc12 (centres unmarked) [Example 785] | 3.55 nM
CNC(=O)c1c(-c2ccc(F)cc2)oc2cc(N(CC(C)(CO)CO)S(C)(=O)=O)c(-c3ccc(OC)c(-c4nc5c(F)cc(F)cc5o4)c3)cc12 [Example 788] | 79 nM
CNC(=O)c1c(-c2ccc(F)cc2)oc2cc(N(CC(C)(C)F)S(C)(=O)=O)c(-c3ccc(OC)c(-c4nc5c(F)cccc5o4)c3)cc12 [Example 789] | 18.7 nM
CNC(=O)c1c(-c2ccc(F)cc2)oc2cc(N(CC(C)(C)F)S(C)(=O)=O)c(-c3ccc(OC)c(-c4nc5c(F)cc(F)cc5o4)c3)cc12 [Example 791] | 28.5 nM
CNC(=O)c1c(-c2ccc(F)cc2)oc2cc(N(CCC(C)(C)F)S(C)(=O)=O)c(-c3ccc(OC)c(-c4nc5c(F)cccc5o4)c3)cc12 [Example 796] | 14 nM

Compound | IC50
CNC(=O)c1c(-c2ccc(F)cc2)oc2cc(N(CCC(C)(C)F)S(C)(=O)=O)c(-c3cccc(-c4nc5ncccc5o4)c3)cc12 [Example 797] | 2.43 nM
CNC(=O)c1c(-c2ccc(F)cc2)oc2cc(N(C(CF)CF)S(C)(=O)=O)c(-c3ccc(OC)c(-c4nc5c(F)cccc5o4)c3)cc12 [Example 807] | 46.7 nM
CNC(=O)c1c(-c2ccc(F)cc2)oc2cc(N(CC(C)(CF)CF)S(C)(=O)=O)c(-c3ccc(OC)c(-c4nc5c(F)cc(F)cc5o4)c3)cc12 [Example 809] | 213 nM
CNC(=O)c1c(-c2ccc(F)cc2)oc2cc(N(CC(F)CCF)S(C)(=O)=O)c(-c3ccc(OC)c(-c4nc5c(F)cccc5o4)c3)cc12 (centres unmarked) [Example 810] | 13.4 nM
CNC(=O)c1c(-c2ccc(F)cc2)oc2cc(N(CC(C)(CO)CF)S(C)(=O)=O)c(-c3ccc(OC)c(-c4nc5c(F)cccc5o4)c3)cc12 (centres unmarked) [Example 813] | 107 nM
CNC(=O)c1c(-c2ccc(F)cc2)oc2cc(N(C(CO)CF)S(C)(=O)=O)c(-c3ccc(OC)c(-c4nc5c(F)cccc5o4)c3)cc12 (centres unmarked) [Example 814] | 9.83 nM
CNC(=O)c1c(-c2ccc(F)cc2)oc2cc(N(CC(O)CCF)S(C)(=O)=O)c(-c3ccc(OC)c(-c4nc5c(F)cccc5o4)c3)cc12 (centres unmarked) [Example 815] | 11.8 nM
CNC(=O)c1c(-c2ccc(F)cc2)oc2cc(N(CC(O)CC#N)S(C)(=O)=O)c(-c3ccc(OC)c(-c4nc5c(F)cc(F)cc5o4)c3)cc12 (centres unmarked) [Example 819] | 8.3 nM
CNC(=O)c1c(-c2ccc(F)cc2)oc2cc(N(CC(O)CC#N)S(C)(=O)=O)c(-c3ccc(OC)c(-c4nc5ccccc5o4)c3)cc12 (centres unmarked) [Example 820] | 5.06 nM
CNC(=O)c1c(-c2ccc(F)cc2)oc2cc(N(CCC(O)CC#N)S(C)(=O)=O)c(-c3ccc(OC)c(-c4nc5c(F)cccc5o4)c3)cc12 (centres unmarked) [Example 821] | 3.27 nM
CNC(=O)c1c(-c2ccc(F)cc2)oc2cc(N(CC(O)Cn3ccnc3)S(C)(=O)=O)c(-c3ccc(OC)c(-c4nc5c(F)cccc5o4)c3)cc12 (centres unmarked) [Example 825] | 8.88 nM
CNC(=O)c1c(-c2ccc(F)cc2)oc2cc(N(CC(O)Cn3ncc4ccccc43)S(C)(=O)=O)c(-c3ccc(OC)c(-c4nc5c(F)cccc5o4)c3)cc12 (centres unmarked) [Example 827] | 11.8 nM
CNC(=O)c1c(-c2ccc(F)cc2)oc2cc(N(CC(C)N)S(C)(=O)=O)c(-c3cccc(-c4nc5ncccc5o4)c3)cc12 (centres unmarked) [Example 830] | 8.47 nM
CNC(=O)c1c(-c2ccc(F)cc2)oc2cc(N(C3CN(C(=O)[C@@H](NC(=O)OC)C(C)C)C3)S(C)(=O)=O)c(-c3ccc(OC)c(-c4nc5c(F)cccc5o4)c3)cc12 [Example 834] | 11.5 nM
CNC(=O)c1c(-c2ccc(F)cc2)oc2cc(N(C[C@@H](C)NC(=O)[C@@H](NC(=O)OC)C(C)C)S(C)(=O)=O)c(-c3cccc(-c4nc5ncccc5o4)c3)cc12 [Example 836] | 82 nM
CNC(=O)c1c(-c2ccc(F)cc2)oc2cc(N(CCCP(=O)(O)O)S(C)(=O)=O)c(-c3ccc(OC)c(-c4nc5c(F)cccc5o4)c3)cc12 [Example 843] | 19.5 nM
CN(C(=O)c1c(-c2ccc(F)cc2)oc2cc(N(C)S(C)(=O)=O)c(-c3cccc(-c4cc5ccccc5[nH]4)c3)cc12)c1ccncc1 [Example 848] | 6440 nM
CN(c1cc2oc(-c3ccc(F)cc3)c(C(=O)Nc3cccnc3)c2cc1-c1cccc(-c2cc3ccccc3[nH]2)c1)S(C)(=O)=O [Example 851, 5-(3-(1H-indol-2-yl)phenyl)-2-(4-fluorophenyl)-6-(N-methylmethylsulfonamido)-N-(pyridin-3-yl)benzofuran-3-carboxamide] | 350 nM

Same assay, conditions: read-out: 1b IC50; HCV genotype 1b replicon; 96 hours incubation; NS3/4A cell ELISA

Compound | pIC50
CNC(=O)c1c(-c2ccc(F)cc2)oc2cc(N(CC(O)Cn3ccnc3)S(C)(=O)=O)c(-c3ccc(OC)c(-c4nc5c(F)cccc5o4)c3)cc12 (centres unmarked) [Example 824] | 7.75

From US20120328569A1, “INHIBITORS OF HEPATITIS C VIRUS NS5B POLYMERASE” (priority 2010, published 2012)
